# Data reported in patent publication US20130109682A1, “CYCLIC ETHER COMPOUNDS USEFUL AS KINASE INHIBITORS” (NOVARTIS AG, priority 2010, published 2013).
# Experiments:
# [1] = molecular target: GSK3β (Homo sapiens, UniProt P49841); assay: GSK3β ATP depletion assay; assay type: biochemical; conditions: ATP depletion assay; read-out: GSK3b IC50
# In short: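 Human GSK3β (5 nM) preincubated 15 min with 10 μM biotinylated phospho-CREB peptide in pH 7.5 Tris buffer (15 mM MgCl2, 1 mM DTT, 0.1% BSA, 2.5% DMSO). Reaction started with 2 μM ATP and run to about 50% ATP depletion. Remaining ATP measured by KinaseGlo luminescence.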
# [2] = molecular target: PIM1 (Homo sapiens, UniProt P11309); assay: Pim 1 AlphaScreen assay (high ATP); assay type: biochemical; conditions: read-out: Pim1 IC50
# Procedure: (§1) Pim1, Pim2, Pim3 AlphaScreen Assay Pim 1, Pim 2 & Pim 3 AlphaScreen assays using high ATP (11-125×ATP Km) were used to determine the biochemical activity of the inhibitors. The activity of Pim 1, Pim 2, & Pim 3 is measured using a homogeneous bead based system quantifying the amount of phosphorylated peptide substrate resulting from kinase-catalyzed phosphoryl transfer to a peptide substrate. Compounds to be tested are dissolved in 100% DMSO and directly distributed to a white 384-well plate at […] per well. To start the reaction, 5 μl of 100 nM Bad peptide (Biotin-AGAGRSRHSSYPAGT —OH) and ATP (concentrations described below) in assay buffer (50 mM Hepes, pH=7.5, 5 mM MgCl2, 0.05% BSA, 0.01% Tween-20, 1 mM DTT) is added to each well. This is followed by the addition of 5 μl/well of Pim 1, Pim 2 or Pim 3 kinase in assay buffer (concentrations described below). Final assay concentrations (described below) are in 2.5% DMSO. The reactions are performed for ˜2 hours, then stopped by the addition of 10 μl of 0.75 μg/ml anti-phospho Ser/Thr antibody (Cell Signaling), 10 μg/ml Protein A AlphaScreen beads (Perkin Elmer), and 10 μg/ml streptavidin coated AlphaScreen beads in stop/detection buffer (50 mM EDTA, 95 mM Tris, pH=7.5, 0.01% Tween-20). The stopped reactions are incubated overnight in the dark. The phosphorylated peptide is detected via an […] initiated chemiluminescence/fluorescence cascade using the Envision plate reader (Perkin Elmer).
# (§2) IC50, the half maximal inhibitory concentration, represents the concentration of a test compound that is required for 50% inhibition of its target in vitro under the described assay conditions.
# [3] = molecular target: PIM2 (Homo sapiens, UniProt Q9P1W9); assay: Pim 2 AlphaScreen assay (high ATP); assay type: biochemical; conditions: read-out: Pim2 IC50
# Procedure: as §1, §2
# [4] = molecular target: PIM3 (Homo sapiens, UniProt Q86V86); assay: Pim 3 AlphaScreen assay (high ATP); assay type: biochemical; conditions: read-out: Pim3 IC50
# Procedure: as §1, §2
# [5] = system: KMS11 (human myeloma cell line); assay: Cell proliferation assay (CellTiter-Glo), KMS11; assay type: cell-based; conditions: Homo sapiens, KMS-11; KMS11 cells, cell proliferation; read-out: KMS11-Luc EC50
# In short: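 KMS11 cells in IMDM with 10% FBS and sodium pyruvate, seeded at 2000 cells/well on assay day. Compound added at 2× to equal volume of cells, incubated 3 days at 37° C. Viability read by CellTiter-Glo luminescence; EC50 derived.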
# PIM2, sequence (Q9P1W9 whole entry): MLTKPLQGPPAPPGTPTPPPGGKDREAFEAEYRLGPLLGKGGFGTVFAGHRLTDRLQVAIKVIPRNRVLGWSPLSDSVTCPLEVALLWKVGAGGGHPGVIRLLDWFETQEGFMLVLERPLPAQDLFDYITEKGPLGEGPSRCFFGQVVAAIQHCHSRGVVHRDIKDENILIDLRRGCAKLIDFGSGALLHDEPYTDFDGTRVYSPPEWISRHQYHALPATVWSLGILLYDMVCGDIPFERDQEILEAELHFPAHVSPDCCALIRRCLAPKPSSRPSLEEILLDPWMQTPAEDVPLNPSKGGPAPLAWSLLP
# PIM1, sequence (P11309 whole entry): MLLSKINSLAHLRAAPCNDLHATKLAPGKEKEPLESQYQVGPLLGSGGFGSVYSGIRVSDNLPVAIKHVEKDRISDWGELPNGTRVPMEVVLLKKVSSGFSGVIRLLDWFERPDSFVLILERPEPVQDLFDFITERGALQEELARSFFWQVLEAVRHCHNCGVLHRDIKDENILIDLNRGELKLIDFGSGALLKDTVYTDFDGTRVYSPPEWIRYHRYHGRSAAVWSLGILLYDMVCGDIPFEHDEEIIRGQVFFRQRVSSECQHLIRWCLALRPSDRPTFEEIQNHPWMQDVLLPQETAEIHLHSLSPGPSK
# GSK3β, sequence (P49841 whole entry, species assumed): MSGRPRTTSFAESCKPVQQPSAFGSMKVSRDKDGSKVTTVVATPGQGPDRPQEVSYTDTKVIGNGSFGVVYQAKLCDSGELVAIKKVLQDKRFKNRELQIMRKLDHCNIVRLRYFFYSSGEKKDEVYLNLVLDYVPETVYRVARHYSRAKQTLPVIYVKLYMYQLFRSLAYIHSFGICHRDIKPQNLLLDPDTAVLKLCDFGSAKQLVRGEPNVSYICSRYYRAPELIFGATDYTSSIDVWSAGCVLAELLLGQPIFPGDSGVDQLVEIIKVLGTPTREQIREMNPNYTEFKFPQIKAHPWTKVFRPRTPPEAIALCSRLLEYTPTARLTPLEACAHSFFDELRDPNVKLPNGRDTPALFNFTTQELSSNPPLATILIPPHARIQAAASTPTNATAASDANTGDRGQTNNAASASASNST
SMILES,IC50 [1] [nM],IC50 [2] [nM],IC50 [3] [nM],IC50 [4] [nM],EC50 [5] [nM]
"COc1cc(F)c(-c2nc(C(=O)Nc3cnccc3[C@H]3C[C@@H](N)[C@](C)(O)[C@@H](C4CC4)O3)ccc2F)c(F)c1 [Example 265, N-(4-((2R,4R,5S,6R)-4-amino-6-cyclopropyl-5-hydroxy-5-methyltetrahydro-2H-pyran-2-yl)pyridin-3-yl)-6-(2,6-difluoro-4-methoxyphenyl)-5-fluoropicolinamide]",1050,0.13,9.6,2.3,–
"CC(C)[C@H]1O[C@@H](c2ccncc2NC(=O)c2ccc(F)c(-c3c(F)cccc3F)n2)C[C@@H](N)[C@@H]1O [Example 271, N-(4-((2R,4R,5S,6R)-4-amino-5-hydroxy-6-isopropyltetrahydro-2H-pyran-2-yl)pyridin-3-yl)-6-(2,6-difluorophenyl)-5-fluoropicolinamide]",2750,0.15,4.3,2.1,–
"CC[C@H]1O[C@@H](c2ccncc2NC(=O)c2ccc(F)c(-c3c(F)cccc3F)n2)C[C@@H](N)[C@]1(C)O (stereo in doubt) [Example 275, N-(4-((2R,4R,5S,6R)-4-amino-6-ethyl-5-hydroxy-5-methyltetrahydro-2H-pyran-2-yl)pyridin-3-yl)-6-(2,6-difluorophenyl)-5-fluoropicolinamide]",16600,2.62,234,51.9,–
"C[C@]1(O)[C@H](N)C[C@H](c2ccncc2NC(=O)c2ccc(F)c(-c3c(F)cccc3F)n2)OC12CC2 [Example 289, N-(4-((5R,7R,8S)-7-amino-8-hydroxy-8-methyl-4-oxaspiro[2.5]octan-5-yl)pyridin-3-yl)-6-(2,6-difluorophenyl)-5-fluoropicolinamide]",6930,2.5,213,29.7,–
"CC(C)(C)[C@H]1O[C@@H](c2ccncc2NC(=O)c2nc(-c3c(F)cccc3F)ncc2N)C[C@@H](N)[C@@H]1O [Example 260, 5-amino-N-(4-((2R,4R,5S,6R)-4-amino-6-tert-butyl-5-hydroxytetrahydro-2H-pyran-2-yl)pyridin-3-yl)-2-(2,6-difluorophenyl)pyrimidine-4-carboxamide]",1040,0.34,6,3.6,–
"C[C@@]1(O)[C@@H](O)C[C@@H](c2ccncc2NC(=O)c2nc(-c3c(F)cccc3F)ncc2N)O[C@H]1C1CC1 [Example 249, 5-amino-N-(4-((2S,4S,5R,6S)-6-cyclopropyl-4,5-dihydroxy-5-methyltetrahydro-2H-pyran-2-yl)pyridin-3-yl)-2-(2,6-difluorophenyl)pyrimidine-4-carboxamide]",6020,989,> 25000,20900,–
"N[C@@H]1C[C@H](c2ccncc2NC(=O)c2csc(-c3c(F)cccc3F)n2)O[C@@H]2CCC[C@H]12 [Example 231, N-(4-((2R,4R,4aR,7aR)-4-aminooctahydrocyclopenta[b]pyran-2-yl)pyridin-3-yl)-2-(2,6-difluorophenyl)thiazole-4-carboxamide]",53.2,0.24,–,14.6,5820
"C[C@@H]1O[C@H](c2ccncc2NC(=O)c2csc(-c3c(F)cccc3F)n2)C[C@H](N)[C@@]1(C)O [Example 222, N-(4-((2S,4S,5R,6S)-4-amino-5-hydroxy-5,6-dimethyltetrahydro-2H-pyran-2-yl)pyridin-3-yl)-2-(2,6-difluorophenyl)thiazole-4-carboxamide]",3060,10.3,–,189,> 10000
"CC(C)[C@H]1OC(c2ccncc2NC(=O)c2ccc(F)c(-c3c(F)cc(S(C)(=O)=O)cc3F)n2)C[C@@H](N)[C@@H]1O (stereo in doubt) [Example 305, N-(4-((2S,4R,5S,6R)-4-amino-5-hydroxy-6-isopropyltetrahydro-2H-pyran-2-yl)pyridin-3-yl)-6-(2,6-difluoro-4-(methylsulfonyl)phenyl)-5-fluoropicolinamide]",2840,–,15.3,–,310
"O=C(Nc1cc(=O)[nH]cc1[C@H]1C[C@@H](O)[C@H](O)[C@@H](CO)O1)c1ccc(F)c(-c2c(F)cccc2F)n1 [Example 226, 6-(2,6-difluorophenyl)-N-(5-((2R,4R,5S,6R)-4,5-dihydroxy-6-(hydroxymethyl)tetrahydro-2H-pyran-2-yl)-2-oxo-1,2-dihydropyridin-4-yl)-5-fluoropicolinamide]",10600,1430,–,23500,> 10000
"Nc1cc(F)c(-c2c(F)cccc2F)nc1C(=O)Nc1cnccc1[C@H]1C[C@@H](N)[C@@]2(O)CCC[C@H]2O1 [Example 216, 3-amino-N-(4-((2R,4R,4aS,7aR)-4-amino-4a-hydroxyoctahydrocyclopenta[b]pyran-2-yl)pyridin-3-yl)-6-(2,6-difluorophenyl)-5-fluoropicolinamide]",946,0.14,–,1.7,530
"N[C@H]1C[C@@H](c2ccncc2NC(=O)c2ccc(F)c(-c3c(F)cccc3F)n2)O[C@H]2CCC[C@H]21 [Example 223, N-(4-((2S,4S,4aS,7aS)-4-aminooctahydrocyclopenta[b]pyran-2-yl)pyridin-3-yl)-6-(2,6-difluorophenyl)-5-fluoropicolinamide]",9830,4.62,–,201,4380
"CC(C)[C@@H]1C[C@H](N)C[C@H](c2ccncc2NC(=O)c2ccc(F)c(-c3c(F)cc(S(C)(=O)=O)cc3F)n2)O1 [Example 302, N-(4-((2R,4S,6S)-4-amino-6-isopropyltetrahydro-2H-pyran-2-yl)pyridin-3-yl)-6-(2,6-difluoro-4-(methylsulfonyl)phenyl)-5-fluoropicolinamide]",1580,–,71.3,–,1620
"CC(C)[C@@H]1C[C@H](N)C[C@H](c2ccncc2NC(=O)c2ccc(F)c(-c3c(F)cccc3F)n2)O1 [Example 300, N-(4-((2R,4S,6S)-4-amino-6-isopropyltetrahydro-2H-pyran-2-yl)pyridin-3-yl)-6-(2,6-difluorophenyl)-5-fluoropicolinamide]",3300,–,11.5,–,690
"COc1cc(NC(=O)c2ccc(F)c(-c3c(F)cccc3F)n2)c([C@H]2C[C@@H](O)[C@H](O)[C@@H](CO)O2)cn1 [Example 225, 6-(2,6-difluorophenyl)-N-(5-((2R,4R,5S,6R)-4,5-dihydroxy-6-(hydroxymethyl)tetrahydro-2H-pyran-2-yl)-2-methoxypyridin-4-yl)-5-fluoropicolinamide]",> 25000,14600,–,> 25000,> 10000
"CC(C)(C)[C@H]1O[C@@H](c2ccncc2NC(=O)c2ccc(F)c(-c3c(F)cc(S(C)(=O)=O)cc3F)n2)C[C@@H](N)[C@@H]1O [Example 280, N-(4-((2R,4R,5S,6R)-4-amino-6-(tert-butyl)-5-hydroxytetrahydro-2H-pyran-2-yl)pyridin-3-yl)-6-(2,6-difluoro-4-(methylsulfonyl)phenyl)-5-fluoropicolinamide]",2250,–,11.8,–,200
"CC1(C)C[C@H](N)C[C@@H](c2ccncc2NC(=O)c2ccc(F)c(-c3c(F)cccc3F)n2)O1 [Example 299, N-(4-((2S,4R)-4-amino-6,6-dimethyltetrahydro-2H-pyran-2-yl)pyridin-3-yl)-6-(2,6-difluorophenyl)-5-fluoropicolinamide]",225,–,6.4,–,140
"C[C@H]1O[C@@H](c2ccncc2NC(=O)c2csc(-c3c(F)cccc3F)n2)C[C@@H](N)[C@]1(C)O [Example 221, N-(4-((2R,4R,5S,6R)-4-amino-5-hydroxy-5,6-dimethyltetrahydro-2H-pyran-2-yl)pyridin-3-yl)-2-(2,6-difluorophenyl)thiazole-4-carboxamide]",74.6,0.64,–,18.7,7720
